US11084814B2, “Pyrido[3, 4-d]pyrimidine derivative and pharmaceutically acceptable salt thereof” (Teijin Pharma Limited, priority 2016, dated 2021)

Key:
CDK4/cyclin D3 = biological target: T1, CDK4/cyclin D3 (Homo sapiens, UniProt P11802); experiment: Human CDK4/cyclin D3 inhibitory activity (QS S Assist CDK4/Cyclin D3_FP Kit, IMAP fluorescent polarization); format: biochemical; conditions: read-out: CDK4 Activity symbol
T1 construct: purchased Carna Biosciences, Inc. QS S Assist CDK4/Cyclin D3_FP Kit
T1 sequence (P11802 whole entry): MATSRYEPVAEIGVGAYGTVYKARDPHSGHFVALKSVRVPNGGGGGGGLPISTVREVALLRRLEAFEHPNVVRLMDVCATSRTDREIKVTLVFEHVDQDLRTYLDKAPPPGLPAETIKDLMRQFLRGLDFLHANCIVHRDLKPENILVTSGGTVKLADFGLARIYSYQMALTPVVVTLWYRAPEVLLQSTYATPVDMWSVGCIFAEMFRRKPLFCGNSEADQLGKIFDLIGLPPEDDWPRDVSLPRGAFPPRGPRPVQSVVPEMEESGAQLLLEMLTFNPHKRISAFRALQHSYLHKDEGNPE
T1 sequence (P30281 whole entry partner): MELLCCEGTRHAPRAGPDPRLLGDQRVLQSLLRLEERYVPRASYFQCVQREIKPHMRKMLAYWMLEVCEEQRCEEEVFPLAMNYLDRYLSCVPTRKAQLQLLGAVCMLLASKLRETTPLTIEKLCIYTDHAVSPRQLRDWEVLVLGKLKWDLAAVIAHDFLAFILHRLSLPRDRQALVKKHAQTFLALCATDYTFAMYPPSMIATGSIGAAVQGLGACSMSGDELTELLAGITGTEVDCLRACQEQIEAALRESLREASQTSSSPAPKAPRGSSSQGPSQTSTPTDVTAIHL
In short: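 Kinase reactions used kit CDK4/cyclin D3 at 12.5–25 ng/well with the kit ATP/substrate/metal mix in 20 mM HEPES (pH 7.4), 0.01% Tween20 and 2 mM DTT, run 45 min at room temperature. Phosphorylation was detected by IMAP fluorescence polarization (ex 485/em 535 nm) after 30 min binding in the dark. IC50 was fitted from percent inhibition against DMSO controls with and without enzyme.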

CDK2/cyclin A2 = biological target: T2, CDK2/cyclin A2 (Homo sapiens, UniProt P24941); experiment: Human CDK2/cyclin A2 inhibitory activity (QS S Assist CDK2/Cyclin A2_FP Kit, IMAP fluorescent polarization); format: biochemical; conditions: read-out: CDK2 Activity symbol
T2 construct: purchased Carna Biosciences, Inc. QS S Assist CDK2/Cyclin A2_FP Kit
In short: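 Kit CDK2/cyclin A2 (2.5 ng/well) was reacted with kit ATP/substrate/metal in 20 mM HEPES pH 7.4, 0.01% Tween 20 and 2 mM DTT for 60 min at room temperature. IMAP binding reagent was added for 30 min, then fluorescence polarization was read at 485/535 nm. IC50 came from dose-response fitting of percent inhibition.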

| Compound | IC50 (CDK4/cyclin D3) [nM] | IC50 (CDK2/cyclin A2) [nM] |
| --- | --- | --- |
| C[C@@H](O)c1cc2cnc(Nc3ccc(N4CCN(C)CC4)nn3)nc2c(N2CCCCC2)n1 [Compound 123, (R)-1-(2-((6-(4-methylpiperazin-1-yl)pyridazin-3-yl)amino)-8-(piperidin-1-yl)pyrido[3,4-d]pyrimidin-6-yl)ethanol] | < 10 | ≥ 100 |
| C[C@@H](O)c1cc2cnc(Nc3ccc(N4CCN(C)CC4)nn3)nc2c(N2CCC(F)CC2)n1 [Compound 124] | < 10 | ≥ 100 |
| CO[C@H](C)c1cc2cnc(Nc3ccc(N4CCN(C)CC4)nn3)nc2c(N2CCC(F)CC2)n1 [Compound 125] | 10 to 100 | ≥ 100 |
| CO[C@H](C)c1cc2cnc(Nc3ccc(N4CCNCC4)nn3)nc2c(N2CCC(F)CC2)n1 [Compound 126] | < 10 | ≥ 100 |
| C[C@@H](O)c1cc2cnc(Nc3ccc(N4CCCNCC4=O)cn3)nc2c(N2CCCCC2)n1 [Compound 127] | < 10 | ≥ 100 |
| OCCN1CCN(Cc2ccc(Nc3ncc4cc(C(F)F)nc(N5CCCCC5)c4n3)nc2)CC1 [Compound 128] | < 10 | ≥ 100 |
| OCCN1CCN(Cc2ccc(Nc3ncc4cc(C(F)F)nc(N5CCC(O)CC5)c4n3)nc2)CC1 [Compound 129] | < 10 | ≥ 100 |
| C[C@@H](O)c1cc2cnc(Nc3ccc4c(n3)CCN(CCCO)C4)nc2c(N2CCCCC2)n1 [Compound 130] | < 10 | ≥ 100 |
| C[C@@H](O)c1cc2cnc(Nc3ccc(O[C@H]4CCN(CCO)C[C@@H]4F)cn3)nc2c(N2CCCCC2)n1 [Compound 131] | 10 to 100 | ≥ 100 |
| C[C@@H](O)c1cc2cnc(Nc3ccc(O[C@@H]4CCN(CCO)C[C@@H]4F)cn3)nc2c(N2CCCCC2)n1 [Compound 132] | < 10 | ≥ 100 |
| C[C@@H](O)c1cc2cnc(Nc3ccc(CN4CCN(C)CC4)cn3)nc2c(N2CC(F)(F)C2)n1 [Compound 133] | 10 to 100 | ≥ 100 |
| OCCN1CCc2nc(Nc3ncc4cc(CO)nc(N5CCCCC5)c4n3)ccc2C1 [Compound 135] | < 10 | ≥ 100 |
| CC(O)c1cc2cnc(Nc3ccc(CN4CCN(C)CC4)cn3)nc2c(N2CCCC2C)n1 (stereo not drawn) [Compound 136] | < 10 | ≥ 100 |
| C[C@@H](O)c1cc2cnc(Nc3ccc(CN4CCN(C)CC4)cn3)nc2c(N2CCC[C@@H]2C)n1 [Compound 137] | 10 to 100 | ≥ 100 |
| C[C@@H]1CCN(c2nc([C@@H](C)O)cc3cnc(Nc4ccc(CN5CCN(C)CC5)cn4)nc23)C1 [Compound 138] | < 10 | ≥ 100 |
| C[C@H]1CCN(c2nc([C@@H](C)O)cc3cnc(Nc4ccc(CN5CCN(C)CC5)cn4)nc23)C1 [Compound 139] | < 10 | ≥ 100 |
| CC1CCC(C)N1c1nc([C@@H](C)O)cc2cnc(Nc3ccc(CN4CCN(C)CC4)cn3)nc12 (stereo partly drawn) [Compound 140] | < 10 | ≥ 100 |
| CC1CN(c2nc([C@@H](C)O)cc3cnc(Nc4ccc(CN5CCN(C)CC5)cn4)nc23)CC1C (stereo partly drawn) [Compound 141] | < 10 | ≥ 100 |
| C[C@@H](O)c1cc2cnc(Nc3ccc(CN4CCN(C)CC4)cn3)nc2c(N2CCC(C)(C)C2)n1 [Compound 142] | < 10 | ≥ 100 |
| C[C@@H](O)c1cc2cnc(Nc3ccc(CN4CCN(C)CC4)cn3)nc2c(N2C3CCC2CC3)n1 [Compound 143] | < 10 | ≥ 100 |
| C[C@@H](O)c1cc2cnc(Nc3ccc(CN4CCN(C)CC4)cn3)nc2c(N2CCC(C(F)(F)F)CC2)n1 [Compound 144] | < 10 | ≥ 100 |

| Compound | IC50 (CDK4/cyclin D3) [nM] | IC50 (CDK2/cyclin A2) [nM] |
| --- | --- | --- |
| C[C@@H](O)c1cc2cnc(Nc3ccc(CN4CCN(C)CC4)cn3)nc2c(N2CCOCC2)n1 [Compound 145] | 10 to 100 | ≥ 100 |
| CCC(O)c1cc2cnc(Nc3ccc(CN4CCN(C)CC4)cn3)nc2c(N2CCCCC2)n1 (stereo not drawn) [Compound 146] | < 10 | ≥ 100 |
| C[C@@H](O)c1cc2cnc(Nc3ccc4c(n3)CCN(C(=O)C3CCNCC3)C4)nc2c(N2CCCCC2)n1 [Compound 147] | < 10 | ≥ 100 |
| C[C@@H](O)c1cc2cnc(Nc3ccc4c(n3)CCN(C(=O)C3CCN(CCO)CC3)C4)nc2c(N2CCCCC2)n1 [Compound 148] | < 10 | ≥ 100 |
| C[C@@H](O)c1cc2cnc(Nc3ccc4c(n3)CCN(C(=O)C3CCN(C)CC3)C4)nc2c(N2CCCCC2)n1 [Compound 149] | < 10 | ≥ 100 |
| C[C@@H](O)c1cc2cnc(Nc3ccc(CN4CCN(C)CC4)cn3)nc2c(N2CCC(F)(F)CC2)n1 [Compound 150] | < 10 | ≥ 100 |
| C[C@@H](O)c1cc2cnc(Nc3ccc(N4CCN(CCO)CCC4=O)cn3)nc2c(N2CCCCC2)n1 [Compound 151] | < 10 | ≥ 100 |
| CC(O)c1cc2cnc(Nc3ccc(CN4CCN(C)CC4C)cn3)nc2c(N2CCCCC2)n1 (stereo not drawn) [Compound 152] | < 10 | ≥ 100 |
| C[C@@H](O)c1cc2cnc(Nc3ccc(CN4CCNCC4)cn3)nc2c(N2CCCCC2)n1 [Compound 155] | < 10 | ≥ 100 |
| C[C@@H](O)c1cc2cnc(Nc3ccc(CN4CCN(CCO)CC4)cn3)nc2c(C2=CCCCC2)n1 [Compound 156] | < 10 | ≥ 100 |
| CC(O)c1cc2cnc(Nc3ccc(CN4CCN(C)CC4)cn3)nc2c(N2CC3CC3C2)n1 (stereo not drawn) [Compound 157] | < 10 | ≥ 100 |
| C[C@@H](O)c1cc2cnc(Nc3ccc(CN4CCN(C)CC4)cn3)nc2c(N2CCCCCC2)n1 [Compound 158] | < 10 | ≥ 100 |
| CC[C@@H](O)c1cc2cnc(Nc3ccc(CN4CCN(CCO)CC4)cn3)nc2c(N2CCCCC2)n1 [Compound 159] | 10 to 100 | ≥ 100 |
| CC[C@H](O)c1cc2cnc(Nc3ccc(CN4CCN(CCO)CC4)cn3)nc2c(N2CCCCC2)n1 [Compound 160] | < 10 | ≥ 100 |
| C[C@@H](O)c1cc2cnc(Nc3ccc4c(n3)CCN(C3COC3)C4)nc2c(N2CCCCC2)n1 [Compound 161] | < 10 | ≥ 100 |
| C[C@@H](O)c1cc2cnc(Nc3ccc4c(n3)CCN(CCN3CCOCC3)C4)nc2c(N2CCCCC2)n1 [Compound 162] | < 10 | ≥ 100 |
| C[C@@H](O)c1cc2cnc(Nc3ccc4c(n3)CCN(S(=O)(=O)C3CCNCC3)C4)nc2c(N2CCCCC2)n1 [Compound 163, (R)-1-(8-(piperidin-1-yl)-2-((6-(piperidin-4-ylsulfonyl)-5,6,7,8-tetrahydro-1,6-naphthyridin-2-yl)amino)pyrido[3,4-d]pyrimidin-6-yl)ethanol] | < 10 | ≥ 100 |
| C[C@@H](O)c1cc2cnc(Nc3ccc(OC4CCNCC4)cn3)nc2c(N2CCCCC2)n1 [Compound 164] | < 10 | ≥ 100 |
| C[C@@H](O)c1cc2cnc(Nc3ccc(OC4CCN(CCO)CC4)cn3)nc2c(N2CCCCC2)n1 [Compound 165] | < 10 | ≥ 100 |
| C[C@H](CO)c1cc2cnc(Nc3ccc4c(n3)CCNC4)nc2c(N2CCCCC2)n1 [Compound 166] | 10 to 100 | ≥ 100 |
| C[C@@H](CO)c1cc2cnc(Nc3ccc(CN4CCN(CCO)CC4)cn3)nc2c(N2CCCCC2)n1 [Compound 167] | < 10 | ≥ 100 |
